Measured values reported in patent publication US20250152504A1, “INTRAUTERINE SYSTEMS COMPRISING ANTI-INFECTIVES FOR STEADY-STATE ACCUMULATION TO DISTAL EXTRAUTERINE TISSUE” (priority 2023, published 2025).
Where two headings read alike, the source gives them in different places.

Experiments:
[1] = Triple active compound (RAL, MVC, ETR) intrauterine system in vivo study, tissue and secretion concentrations; conditions: for concentration at 28 days: 28 days after insertion
Text: Described herein is a study conducted on an intrauterine system having a plurality of delivery systems (such as shown in FIGS. 1D and 1E). This study included three matrix delivery systems. The first delivery system included raltegravir (RAL), the second delivery system included etravirine (ETR), and the third delivery system included maraviroc (MVC). The intrauterine system was implanted and retained in the uterus of a patient for 28 days.
Multiple samples were taken before, during, and after insertion of the intrauterine system. Plasma samples were taken an hour before insertion, at insertion, 24 hours after insertion, 48 hours after insertion, 72 hours after insertion, 7 days after insertion, 14 days after insertion, 21 days after insertion, and 28 days after insertion (when the intrauterine system was removed). Vaginal swabs were taken an hour before insertion, at 7 days after insertion, 14 days after insertion, 21 days after insertion, and 28 days after insertion. Vaginal biopsies were taken an hour before insertion, 7 days after insertion, and 28 days after insertion. Endometrial and cervical biopsies were taken an hour before insertion and 28 days after insertion. Histology was also performed an hour before insertion, and consistent visual inspection was done throughout for safety.

[2] = Post-use assay of residual ARVs in removed IUDs (triple study); assay type: in vivo; conditions: for Average dose / Total DPV released: 28 days
Text: FIGS. 15A-15C are graphs showing post-use assays of residual anti-retroviral pharmaceutical compositions in removed intrauterine devices, in accordance with the present technology. […]

[3] = In vitro drug release from TPU matrix delivery system prototypes; assay type: physicochemical; conditions: for cumulative release of loaded drug: after 30 days
Experimental: Films were cut into disks with a 1-inch diameter die punch; disks were stacked and placed between two pieces of aluminum foil and compressed under a metal weight on a 120° C. dry bath. Thickness was monitored frequently until it measured 3.5 mm with digital calipers calibrated to 0.01 mm. Devices were cut from thick films using a custom rectangular 3.5 mm×13.3 mm die punch.
(§1) All release tests were performed in sink conditions in PBS supplemented with 2% w/v Cremophor® A25/Emulgin® B25. For the first 7-days of drug release testing, 1 mL samples were taken daily; following 7 days, samples were taken every 3-4 days. At all timepoints, bottles were drained and replaced with fresh media following sampling.
A qualification for selecting an optimal TPU for DPV delivery in this application is the time to achieve 50% cumulative release of drug. This is based on the standard use time of hormonal IUDs, which in practice are removed once about half of the initial load of drug is depleted from the device. Here, this standard was used as a benchmark to evaluate the sustained release properties of candidate delivery system designs. […] The fit of first-order release kinetics to the data was assessed. Equations 1 and 2 describe drug release from a system where dissolution is dependent on a concentration gradient.
Where k is the first order rate constant, Ct is the concentration of drug in solution at time t and C0 is the initial concentration of drug.
Where Q is the amount of drug release in time t and kh is the Higuchi release constant.
Based on the best-fit square-root of time relation, T50% was calculated for each TPU. […] Korsmeyer and Peppas provided a method for understanding drug release mechanisms of swelling and non-swelling polymeric systems, given by Equation 4: […]
Where Mt/M∝ is the fraction of drug released at time t, K is the rate constant, and n is the release exponent.

[4] = In vitro drug release from core-sheath reservoir delivery system prototypes; assay type: physicochemical; conditions: 6 core-sheath reservoir prototypes, core TPU loaded at 1 wt %, three sheath polymers, 100 and 200 μm sheath thickness
Experimental: Reservoir delivery system prototypes were prepared using a heated coextrusion process. Briefly, core polymer (PY-PT43DE20) was melted and homogenized with the appropriate mass of dapivirine to achieve 1 wt % and 30 wt % core polymer loading. […] The inner crosshead diameter was varied mid-extrusion to generate devices with sheath thicknesses ranging from 100-200 μm while retaining a constant outer diameter. Material was cut to the desired length per device (13.33 mm) and in-spec devices were identified based on sheath thickness using brightfield microscopy. Devices were incubated for two weeks at 40° C. to equilibrate drug in the core and sheath compartments.
as §1, with “sampling. For reservoir delivery system prototypes, three replicates of each formulation were end capped and one device was tested with no end cap to confirm the integrity of the end cap in preventing uncontrolled diffusion form the exposed core.” for “sampling.”
Both polyether sheath reservoirs (R1 & R2) released DPV faster than polycarbonate sheath reservoirs (R3 & R4). […]

[5] = 1 wt % loading, TPU2 matrix, from best-fit release model
[6] = 1 wt % loading, TPU3 matrix, from best-fit release model
[7] = 1 wt % loading, TPU4 matrix, from best-fit release model
[8] = 1 wt %, TPU4 matrix, total by 30 days
[9] = 16.6 wt % loading, TPU4 matrix, from best-fit release model
[10] = 16.6 wt %, TPU4 matrix, final rate at 30 days, per each ⅓ segment of the device
[11] = 20 wt % matrix, hydrophobic and crystalline TPU, after 20 days

| Compound | T50% [2] [days] | Average dose [2] [µg/day] | Total DPV released [2] [mg] | Actual T50% ([3]; 1 wt % loading, TPU2 matrix) [days] | First-Order: k ([3]; 1 wt % loading, TPU2 matrix) | Higuchi: kH ([3]; 1 wt % loading, TPU2 matrix) | Predicted T50% [3, 5] [days] | Actual T50% ([3]; 1 wt % loading, TPU3 matrix) [days] | First-Order: k ([3]; 1 wt % loading, TPU3 matrix) | Higuchi: kH ([3]; 1 wt % loading, TPU3 matrix) | Korsmeyer-Peppas Constant: n ([3]; 1 wt % loading, TPU3 matrix) | Predicted T50% [3, 6] [days] | First-Order: k ([3]; 1 wt % loading, TPU4 matrix) | Higuchi: kH ([3]; 1 wt % loading, TPU4 matrix) | Korsmeyer-Peppas Constant: n ([3]; 1 wt % loading, TPU4 matrix) | Predicted T50% [3, 7] [days] | cumulative release [3, 8] [%] | First-Order: k ([3]; 16.6 wt % loading, TPU4 matrix) | Higuchi: kH ([3]; 16.6 wt % loading, TPU4 matrix) | Korsmeyer-Peppas Constant: n ([3]; 16.6 wt % loading, TPU4 matrix) | further results |
| --- | --- | --- | --- | --- | --- | --- | --- | --- | --- | --- | --- | --- | --- | --- | --- | --- | --- | --- | --- | --- | --- |
| Cc1cc(C#N)cc(C)c1Oc1nc(Nc2ccc(C#N)cc2)nc(N)c1Br [ETR, etravirine] | 300 | 15.24 | 0.43 | 13 | 0.002, h^−1 | 0.026, %/h^1/2 | 15.5 | 13 | 0.002, h^−1 | 0.030, %/h^1/2 | 0.585, | 12 | 0.0004, h^−1 | 0.011, %/h^1/2 | 0.535, | 90 | 27.70 | 0.0001, h^−1 | 0.003, %/h^1/2 | 0.599, | concentration at 28 days ([1]; female, human, endometrium, other: intrauterine (implanted intrauterine system), read-out: tissue concentration, Endometrium): 434 ng/mL; Mean concentration in vaginal secretions ([1]; in vivo): 344.30 ng/mL; Korsmeyer-Peppas Constant: n ([3]; 1 wt % loading, TPU2 matrix): 0.484,; Predicted T50% [3, 9]: 857 days; cumulative release of loaded drug ([3]; 16.6 wt %, TPU4 matrix): 8.5%; release rate [3, 10]: ~14 µg/day |
| Nc1nc2c(ncn2COCCO)c(=O)[nH]1 [ACV, acyclovir] | – | – | – | – | – | – | – | – | – | – | – | – | – | – | – | – | – | – | – | – | minimum release rate ([3]; 20 wt % in TPU4 matrix, 15 days in vitro dissolution): 59 µg/day; cumulative release ([3]; 20 wt % in TPU4 matrix, after 15 days): 18%; Predicted T50% ([3]; 20 wt % in TPU4 matrix, best-fit in vitro release model): 156 days; maximum release ([3]; High saturation matrixes): 1112 micrograms per day; minimum release ([3]; High saturation matrixes): 109 micrograms per day |
| Cc1nc(N(C)C(=O)Cc2ccc(-c3ccccn3)cc2)sc1S(N)(=O)=O [PTV, pritelivir] | – | – | – | – | – | – | – | – | – | – | – | – | – | – | – | – | – | – | – | – | daily release [4]: 1 to 40 µg/day; time for half of the original dose to release ([3]; 20 wt % matrix, Higuchi release kinetic analysis): approximately 500 days; cumulative release [3, 11]: approximately 9%; release rate [3, 11]: 30 µg/day; duration of use of the device ([3]; matrix device loaded with 20-30 mg of PTV, tested in vitro for 480 hours): 3-4 years |
| Cc1nnc(C(=O)NC(C)(C)c2nc(C(=O)NCc3ccc(F)cc3)c(O)c(=O)n2C)o1 [RAL, raltegravir] | 101 | 46.31 | 1.30 | <1 | 0.016, h^−1 | 0.052, %/h^1/2 | 2 | 1 | 0.004, h^−1 | 0.023, %/h^1/2 | 0.201, | 7 | 0.0004, h^−1 | 0.010, %/h^1/2 | 0.333, | 109 | 31.71 | 0.0002, h^−1 | 0.006, %/h^1/2 | 0.455, | concentration at 7 days ([1]; female, human, in vivo, 7 days after insertion, read-out: tissue concentration, Vagina): 194 ng/mL; concentration at 28 days ([1]; female, human, in vivo, read-out: tissue concentration, Cervix): 237 ng/mL; concentration at 28 days ([1]; female, human, in vivo, read-out: tissue concentration, Endometrium): 237 ng/mL; concentration at 28 days ([1]; female, human, in vivo, read-out: tissue concentration, Rectum): 39.9 ng/mL; concentration at 28 days ([1]; female, human, in vivo, read-out: tissue concentration, Vagina): 253 ng/mL; time to reach 100% release ([3]; 1 wt %, TPU2 matrix): 7 days; cumulative release of encapsulated drug ([3]; 1 wt %, TPU2 matrix, first 24 hours): approximately 50%; cumulative release of encapsulated drug ([3]; 1 wt %, TPU3 matrix, by 30 days / one month): 100%; cumulative release of encapsulated drug ([3]; 1 wt %, TPU3 matrix, first 24 hours): approximately 50%; Predicted T50% [3, 9]: 251 days; cumulative release of loaded drug ([3]; 16.6 wt %, TPU4 matrix): approximately 18%; release rate [3, 10]: around 22 μg/day; First-Order: k ([3]; 30 wt % loading, TPU4 matrix): 0.0002, h^−1; Higuchi: kH ([3]; 30 wt % loading, TPU4 matrix): 0.005, %/h^1/2; Predicted T50% ([3]; 30 wt % loading, TPU4 matrix, from best-fit release model): 363 days; cumulative release of encapsulated drug ([3]; 30 wt %, TPU4 matrix, at 30 days): approximately 17%; release rate ([3]; 30 wt %, TPU4 matrix, at study terminus (30 days), per each ⅓ segment of the device): 41.13 µg/day |
